Data on five molecules can be found in patent US5508301A, “Ketorolac derivatives with considerably reduced gastro-intestinal irritation and ulceration” (Roemmers S.A.I.C.F., priority 1993, dated 1996).

Counter-ions that a name gives are not always drawn. Like-named read-outs stand apart in the source and are kept apart here.

Series [1] in a line: Comparison tests as regards the undesired side effects, overall statement. Particulars: test not shown in the table; compared with 2-(1-pyrrolidinyl)ethyl ester.
The conditions of series [2]: rat, in vivo.
The test system of a further series is rat. Particulars: LD50, species not stated in the sentence itself.
The nature of series [3]: Antipyretic effect: temperature increase by beer yeast, rectal temperature, oral administration. It is filed as in vivo. The note with it: p.o., rat, rectal temperature 5, 6, 7 and 8 hours after administration, read-out: Antipyretic Effect p.o. of 50. Here is the method:
(§1) The antipyretic effect was determined by increasing the rat's temperature by means of beer yeast by 20% and the rectal temperature of the rat was measured 5, 6, 7 and 8 hours after the administration. The percentage of increase compared to the comparison sample was measured.

Series [4] in a line: in vivo. The note with it: mouse, po, read-out: Acute Toxicity p.o. LD50 (mg/kg) in the mouse.
Series [5] in a line: in vivo. The note with it: rat, po.
The conditions of series [6]: rat, in vivo. This is another data set of the same source.
The conditions of series [7]: rat, in vivo. This is another data set of the same source.
Experimental: The ulceration effect was determined in three groups of 6 rats each. […] The ulceration effect was evaluated microscopically by means of an ulceration index which corresponds to the sum of evaluations of each animal, multiplied by the percentage of animals above null, divided by the total number of animals (0=normal; 1=minor haemorrhages; 2=considerable haemorrhages; 3=small ulcus; 4=large ulcus, more than 2 mm; 5=perforated ulcus).
The same animals were examined for the degree of injury probability of stomach tissue by means of a microscopic quantification of different degrees of lesions: no change, haemorrhages, necrosis.
For series [8] the following is noted: rat, in vivo. The source holds these as a separate data set.
Series [9] is described as follows: Comparison tests as to the pharmacological effect (analgetic/antiphlogistic and antipyretic), overall statement. It is filed as in vivo, rat. Particulars: B compared with A; C compared with pyrrolidine ester. Here is the method:
The analgetic effect was measured by the test of inhibition of the contortions generated by peritoneal administration of 0.1 ml acetic acid (3%).
The antiinflammatory effect was evaluated by the Paw-Edema method in which carragenin (1%) was used and the percentage of the decrease of the volume increase was measured at the Paw of the rat.
as §1

Turning to `O=C(c1ccccc1)c1ccc2n1CCC2C(=O)OCCN1CCCCC1` (centres unmarked) [2-(1-piperidinyl)ethyl ester], the “undesired side effects, in words” value in series [1] is on record as “the said advantages will not be obtained”.
For `O=C(c1ccccc1)c1ccc2n1CCC2C(=O)OCCN1CCOCC1` (centres unmarked) [2-(4-morpholinyl)ethyl ester], the “undesired side effects, in words” value in series [1] is on record as “the said advantages will not be obtained”.
For the molecule `O=C(c1ccccc1)c1ccc2n1CCC2C(=O)O` (centres unmarked) [A], in series [2], the “Possibility of Injuries of Stomach Tissue: animals with haemorrhages” value (shortened to “Possibility of Injuries … with haemorrhages”) is 2 animals; the “Possibility of Injuries of Stomach Tissue: animals with necrosis” value (shortened to “Possibility of Injuries … with necrosis”) was determined as 4 animals; the “Possibility of Injuries of Stomach Tissue: animals without changes” value (shortened to “Possibility … animals without changes”) is 0 animals; the “test of possible injuries of stomach tissue, in words” value (“test” for short) is listed as “all show haemorrhages or necrosis”. Besides, the “acute toxicity, in words” value with rat is “acceptable acute toxicity”. Also, in the series with rat (listed as ketorolac trometamole salt), the “acute toxicity, in words” value is “comparable and acceptable”. In addition, the ED50 in [3] is roughly 3 mg/kg. Besides, the LD50 in the series “in vivo [4]” was determined as 118 mg/kg. Also, the LD50 in the series “in vivo [5]” was 105 mg/kg.
As for `O=C(c1ccccc1)c1ccc2n1CCC2C(=O)OCCN1CCCC1` (centres unmarked) [B, oxalate of 2-(1-pyrrolidinyl)ethyl ester of ketorolac], in series [2], the “Possibility of Injuries … with haemorrhages” value is reported as 0 animals; the “Possibility of Injuries … with necrosis” value is listed as 0 animals; the “Possibility … animals without changes” value came to 6 animals; the “test” value is given as “all animals remain unchanged”. For the same molecule, the “acute toxicity, in words” value in the series with rat is “acceptable acute toxicity”. The “acute toxicity, in words” value in the series with rat (listed as oxalate of 2-(1-pyrrolidinyl)ethyl ester of ketorolac) is “comparable and acceptable”. The ED50 in series [3] was greater than 3 mg/kg. Further, the LD50 in “in vivo [4]” was 93 mg/kg. Moreover, the “ulceration index relative to that detected with (A)” value in series [6] is “merely one third of that detected with (A)”. The “undesired side effects compared with trometamole salt of ketorolac, in words” value in [7] is “considerably less undesired side effects than the trometamole salt of ketorolac”. Besides, the LD50 in the series “in vivo [5]” turned out to be 235 mg/kg. Moreover, the “destruction index of the gastric mucosa, in words” value in series [8] is given as “considerably lower than with (A)”.
For the molecule `CCN(CC)CCOC(=O)C1CCn2c(C(=O)c3ccccc3)ccc21` (centres unmarked) [C, maleate of 2-(diethylamino)ethyl ester of ketorolac], in [2], the “Possibility of Injuries … with haemorrhages” value is on record as 0 animals; the “Possibility of Injuries … with necrosis” value is reported as 5 animals; the “Possibility … animals without changes” value is listed as 1 animals; the “test” value was “much greater with the former than with the latter”. Also, the “acute toxicity, in words” value with rat is “comparable and acceptable”. The ED50 in [3] was roughly 3 mg/kg. The “pharmaceutical/pharmacological effect (analgetic/antiphlogistic and antipyretic), in words” value in series [9] is “practically the same”. Also, the LD50 in “in vivo [4]” is 198 mg/kg. Moreover, the “ulceration index relative to that of 2-(1-pyrrolidinyl)ethyl ester” value in series [6] is recorded as “twice as high as that of 2-(1-pyrrolidinyl)ethyl ester”.
